Experimental data reported in ChEMBL document CHEMBL3885861, “Open TG-GATES”.

Species: Rattus norvegicus
Assay: Open TG-GATES - Regimen: Single
Assay type: toxicity, organism-based, Sprague-Dawley
Parameters: regimen Single, gender Male, age 6 weeks
Settings: in vivo, po, 100 mg/kg, route gavage, dose level Middle; for APTT / Bas / Eos / Fbg / Hb / Ht / Lym / MCH / MCHC / MCV / Mono / Neu / PT / Plat / RBC / Ret / WBC: tissue Blood; for KIDNEY_L / KIDNEY_R / KIDNEY_TOTAL: tissue Kidney; for LIVER: tissue Liver; for A/G / ALP / ALT / AST / BUN / CRE / Ca / Cl / DBIL / GLC / IP / K / LDH / Na / PL / RALB / TBIL / TC / TG / TP / gamma-GTP: tissue Plasma

For `CC[C@H]1[C@@H]2C[C@H]3[C@@H]4N(C)c5ccccc5[C@]45C[C@@H]([C@@H]2[C@H]5O)N3[C@@H]1O` [AJMALINE], the TERMINAL_BW (3 h) was 195.2 g, the APTT (3 h) was 16.3 s and the Bas (3 h) was 0%. The Eos (3 h) was 0.6%, the Fbg (3 h) was 201.2 mg/dL and the Hb (3 h) was 13.1 g/dL. For the same molecule, the Ht (3 h) was 40.1%, the Lym (3 h) was 80.2% and the MCH (3 h) was 21.8 pg. It also gave an MCHC (3 h) of 32.7%, an MCV (3 h) of 66.7 fL and a Mono (3 h) of 6.8%. For the same molecule, the Neu (3 h) was 12.4%, the PT (3 h) was 11.8 s and the Plat (3 h) was 115.9 x10_4/uL. The RBC (3 h) was 602.8 x10_4/ul, the Ret (3 h) was 12.1% and the WBC (3 h) was 109.1 x10_2/uL. The KIDNEY_L (3 h) was 0.9 g, the KIDNEY_R (3 h) was 0.9 g and the KIDNEY_TOTAL (3 h) was 1.8 g. For the same molecule, the LIVER (3 h) was 9.6 g, the A/G (3 h) was 2.4 and the ALP (3 h) was 824.8 IU/L. It also gave an ALT (3 h) of 33.4 IU/L, an AST (3 h) of 64.6 IU/L and a BUN (3 h) of 11.6 mg/dL. It also gave a CRE (3 h) of 0.4 mg/dL, a Ca (3 h) of 11.1 mg/dL and a Cl (3 h) of 103 meq/L. The DBIL (3 h) was 0.052 mg/dL, the GLC (3 h) was 198.4 mg/dL and the IP (3 h) was 9.1 mg/dL. It also gave a K (3 h) of 4.5 meq/L, an LDH (3 h) of 128 IU/L and a Na (3 h) of 138.2 meq/L. For the same molecule, the PL (3 h) was 140.4 mg/dL, the RALB (3 h) was 3.6 g/dL and the TBIL (3 h) was 0.4 mg/dL. The TC (3 h) was 75 mg/dL, the TG (3 h) was 65.6 mg/dL and the TP (3 h) was 5.2 g/dL. The gamma-GTP (3 h) was 1.6 IU/L, the TERMINAL_BW (6 h) was 187.8 g and the APTT (6 h) was 17 s. The Bas (6 h) was 0%, the Eos (6 h) was 0.6% and the Fbg (6 h) was 193.4 mg/dL. It also gave a Hb (6 h) of 12.9 g/dL, a Ht (6 h) of 39% and a Lym (6 h) of 84.2%. The MCH (6 h) was 21.8 pg, the MCHC (6 h) was 33.1% and the MCV (6 h) was 66 fL. The Mono (6 h) was 5.8%, the Neu (6 h) was 9% and the PT (6 h) was 12.1 s. For the same molecule, the Plat (6 h) was 109.9 x10_4/uL, the RBC (6 h) was 591.4 x10_4/ul and the Ret (6 h) was 11.2%. It also gave a WBC (6 h) of 76.5 x10_2/uL, a KIDNEY_L (6 h) of 0.9 g and a KIDNEY_R (6 h) of 0.9 g. It also gave a KIDNEY_TOTAL (6 h) of 1.8 g, an LIVER (6 h) of 8.5 g and an A/G (6 h) of 2.2. The ALP (6 h) was 849 IU/L, the ALT (6 h) was 31.6 IU/L and the AST (6 h) was 67.8 IU/L. It also gave a BUN (6 h) of 9 mg/dL, a CRE (6 h) of 0.5 mg/dL and a Ca (6 h) of 11 mg/dL. The Cl (6 h) was 102.6 meq/L, the DBIL (6 h) was 0.044 mg/dL and the GLC (6 h) was 191 mg/dL. For the same molecule, the IP (6 h) was 9.9 mg/dL, the K (6 h) was 4.6 meq/L and the LDH (6 h) was 99.2 IU/L. For the same molecule, the Na (6 h) was 138.4 meq/L, the PL (6 h) was 140.2 mg/dL and the RALB (6 h) was 3.5 g/dL. For the same molecule, the TBIL (6 h) was 0.4 mg/dL, the TC (6 h) was 83.6 mg/dL and the TG (6 h) was 60.4 mg/dL. It also gave a TP (6 h) of 5.2 g/dL, a gamma-GTP (6 h) of 1 IU/L and a TERMINAL_BW (9 h) of 191.7 g. The APTT (9 h) was 16.7 s, the Bas (9 h) was 0% and the Eos (9 h) was 1.2%. The Fbg (9 h) was 206 mg/dL, the Hb (9 h) was 12.9 g/dL and the Ht (9 h) was 39.2%. The Lym (9 h) was 75%, the MCH (9 h) was 21.6 pg and the MCHC (9 h) was 32.8%. The MCV (9 h) was 65.6 fL, the Mono (9 h) was 7.8% and the Neu (9 h) was 16.2%. The PT (9 h) was 11.9 s, the Plat (9 h) was 115.9 x10_4/uL and the RBC (9 h) was 597 x10_4/ul. It also gave a Ret (9 h) of 9.5%, a WBC (9 h) of 88.2 x10_2/uL and a KIDNEY_L (9 h) of 0.9 g. For the same molecule, the KIDNEY_R (9 h) was 1 g, the KIDNEY_TOTAL (9 h) was 1.9 g and the LIVER (9 h) was 8.1 g. It also gave an A/G (9 h) of 2.6, an ALP (9 h) of 786.2 IU/L and an ALT (9 h) of 33 IU/L. It also gave an AST (9 h) of 67.2 IU/L, a BUN (9 h) of 11 mg/dL and a CRE (9 h) of 0.5 mg/dL. It also gave a Ca (9 h) of 10.3 mg/dL, a Cl (9 h) of 104.6 meq/L and a DBIL (9 h) of 0.066 mg/dL. It also gave a GLC (9 h) of 190.6 mg/dL, an IP (9 h) of 10.6 mg/dL and a K (9 h) of 4.8 meq/L. The LDH (9 h) was 107 IU/L, the Na (9 h) was 138 meq/L and the PL (9 h) was 138 mg/dL. It also gave an RALB (9 h) of 3.7 g/dL, a TBIL (9 h) of 0.3 mg/dL and a TC (9 h) of 79.8 mg/dL. It also gave a TG (9 h) of 46 mg/dL, a TP (9 h) of 5.2 g/dL and a gamma-GTP (9 h) of 0.2 IU/L. It also gave a TERMINAL_BW (24 h) of 205.6 g, an APTT (24 h) of 16.3 s and a Bas (24 h) of 0%. The Eos (24 h) was 1%, the Fbg (24 h) was 205.6 mg/dL and the Hb (24 h) was 12.7 g/dL. It also gave a Ht (24 h) of 38.5%, a Lym (24 h) of 81.2% and an MCH (24 h) of 21.8 pg. It also gave an MCHC (24 h) of 33.1%, an MCV (24 h) of 65.9 fL and a Mono (24 h) of 5.8%. It also gave a Neu (24 h) of 12.4%, a PT (24 h) of 11.6 s and a Plat (24 h) of 106.5 x10_4/uL. It also gave an RBC (24 h) of 585.2 x10_4/ul, a Ret (24 h) of 11.1% and a WBC (24 h) of 105.9 x10_2/uL. The KIDNEY_L (24 h) was 1 g, the KIDNEY_R (24 h) was 1 g and the KIDNEY_TOTAL (24 h) was 2 g. The LIVER (24 h) was 10.2 g, the A/G (24 h) was 2.2 and the ALP (24 h) was 869.2 IU/L. The ALT (24 h) was 39.4 IU/L, the AST (24 h) was 67.2 IU/L and the BUN (24 h) was 17.4 mg/dL. It also gave a CRE (24 h) of 0.6 mg/dL, a Ca (24 h) of 10.9 mg/dL and a Cl (24 h) of 102.2 meq/L. The DBIL (24 h) was 0.03 mg/dL, the GLC (24 h) was 204.2 mg/dL and the IP (24 h) was 8.4 mg/dL. For the same molecule, the K (24 h) was 4.5 meq/L, the LDH (24 h) was 105.2 IU/L and the Na (24 h) was 139.8 meq/L. The PL (24 h) was 142.6 mg/dL, the RALB (24 h) was 3.7 g/dL and the TBIL (24 h) was 0.4 mg/dL. It also gave a TC (24 h) of 79.4 mg/dL, a TG (24 h) of 81.6 mg/dL and a TP (24 h) of 5.4 g/dL. The gamma-GTP (24 h) was 0.8 IU/L.
